Laboratory results taken from patent US20250302795A1, “SMALL MOLECULE COMPOUNDS WITH NEGATIVE REGULATORY EFFECTS ON Nrf2 SIGNALING [sequence] AND THEIR POTENTIAL APPLICATIONS” (Beijing Hebabiz Biotechnology Co., Inc., priority 2022, published 2025).

How the values were obtained:
Format in all cases: in vivo, rat
[1] = system: rats with nonalcoholic steatohepatitis induced by a high-fat diet and CCl4; assay: Serum biochemical indices, high-fat diet and CCl4 model; conditions: end of tenth week of administration, positive control group
Experimental: (§1) Starting from the seventh week, they received subcutaneous injections of a 30% CCl4 olive oil solution at a dosage of 0.2 ml/100 g behind their back twice per week for a total of four times. Once the model was successfully replicated, the corresponding drugs were administered orally (10 ml/kg) in each treatment group, and both the normal control group and the model group received equal volumes of a 0.5% CMC-Na solution once daily for ten consecutive weeks. Throughout the experimental period, the rats were provided with ad libitum access to food and water, while the animal chamber was maintained under controlled conditions of quietness, natural lighting, a temperature of 25±0.5° C., and a humidity level of 55±5%. The rats' body weights were measured once per week and recorded.
(§2) At the end of the tenth week of administration, all rats underwent a 16-hour fasting period following their final administration and were intraperitoneally injected with a 20% ulinastatin solution (10 ml/kg) for anesthesia. Subsequently, blood samples were collected from the abdominal aorta and allowed to stand for one hour, and then centrifuged at 4° C. for fifteen minutes at a speed of 3000 r/min. Finally, the upper serum was stored at −80° C. Following the instructions provided with the biochemical index detection kit, levels of HDL-C, LDL-C, NEFA, AST, ALT, UA, TC, TG, PCIII, IV-C LN and HA in rat serum were determined.
According to the kit instructions, the concentration of fasting plasma glucose (FPG) in serum was determined using colorimetry, while the concentration of fasting insulin (FINS) in serum was measured through radioimmunoassay.

[2] = system: rats with non-alcoholic steatohepatitis induced by high-fat diet; assay: Liver indices, non-alcoholic steatohepatitis model induced by high-fat diet; conditions: high-fat diet model; positive control group
Experimental: (§3) The normal control group was fed a standard diet for twelve weeks while the other groups were fed a high-fat diet consisting of 88% basal diet+10% lard+2% cholesterol for twelve weeks. After establishing the model, the drug groups received their respective treatments at a dosage of 10 ml/kg while the normal and model groups received an equal volume of 0.5% CMC-Na solution. The rats were provided with ad libitum access to water and food, while the animal chamber was maintained under controlled conditions of quietness, natural lighting, a temperature of 25±0.5° C., and a humidity level of 55±5%. The rats' body weights were measured once per week and recorded.
(3) Liver indices was determined by dividing the wet weight of the liver by the body weight of rats and multiplying by 100%, after liver tissue was isolated, washed with normal saline, dried using filter paper, and weighed following blood sampling from the abdominal aorta. (4) HE staining and oil red staining were performed on liver tissue samples obtained from the abdominal aorta of rats. The tissue was fixed in 10% neutral formalin, followed by embedding, slicing, dewaxing, staining, transparency treatment, and sealing using routine procedures. Microscopic examination was conducted to observe the pathological changes in rat liver tissues across different groups. Additionally, the NASH-CRN scoring system was employed to assess NAS scores. (5) Detection of Proteins Associated with Non-Alcoholic Steatohepatitis

[3] = Body weight of rats, high-fat diet non-alcoholic steatohepatitis model; conditions: positive control group, in g (unit assumed)
Experimental: as §3
The rats were weighed weekly to monitor the fluctuations in body weight within each experimental group.

[4] = Body weight of rats, high-fat diet + CCl4 non-alcoholic steatohepatitis model; conditions: positive control group, in g (unit assumed)
Experimental: as §1, with “The normal control group were fed a standard diet while the other groups were exclusively fed a high-fat diet consisting of 88% basal diet +10% lard +2% cholesterol for the initial six weeks. Starting” for “Starting”
The weight changes of rats in each group were compared by conducting weekly weigh-ins after the experiment.

[5] = system: rats with nonalcoholic steatohepatitis induced by a high-fat diet and CCl4; assay: Four indices of serum hepatic fibrosis, high-fat diet and CCl4 model; conditions: positive control group
Experimental: as §1, §2

[6] = system: rats with nonalcoholic steatohepatitis induced by a high-fat diet and CCl4; assay: Liver indices, non-alcoholic steatohepatitis model induced by high-fat diet and CCl4; conditions: positive control group
Experimental: as §1, with “The normal control group were fed a standard diet while the other groups were exclusively fed a high-fat diet consisting of 88% basal diet +10% lard +2% cholesterol for the initial six weeks. Starting” for “Starting”
After blood sampling from the abdominal aorta of rats, the liver tissue was isolated, rinsed with normal saline solution, dried using filter paper, weighed accurately, and subsequently calculated the Liver indices: Liver indices=wet liver weight/body weight×100%.

**Q.** Which HOMA-IR ([1]; FPG x FINS/22.5) does the source give for `CC[C@H]1[C@@H](O)[C@@H]2[C@H](CC[C@]3(C)[C@@H]([C@H](C)CCC(=O)O)CC[C@@H]23)[C@@]2(C)CC[C@@H](O)C[C@@H]12` [Ocaliva, Obercholic acid] here?
**A.** 4.90

**Q.** What about the ALT ([1]; serum) of the same compound?
**A.** 54.91 U/L

**Q.** What about the AST ([1]; serum) of the same compound?
**A.** 62.32 U/L

**Q.** And the HDL-C ([1]; serum)?
**A.** 1.30 mmol/L

**Q.** What about the LDL-C ([1]; serum) of the same compound?
**A.** 1.29 mmol/L

**Q.** What about the NEFA ([1]; serum) of the same compound?
**A.** 0.69 mmol/L

**Q.** And the TC ([1]; serum)?
**A.** 1.76 mmol/L

**Q.** And the TG ([1]; serum)?
**A.** 0.50 mmol/L

**Q.** And the UA ([1]; serum)?
**A.** 106 µmol/L

**Q.** What about the “Liver Indices” value [2] of the same compound?
**A.** 2.95 ± 0.68 %

**Q.** What about the body weight ([3]; week 0 (pre-administration)) of the same compound?
**A.** 197.61 ± 4.50

**Q.** And the body weight ([3]; week 1 (pre-administration))?
**A.** 257.27 ± 10.59

**Q.** What about the body weight ([3]; week 2 (pre-administration)) of the same compound?
**A.** 318.89 ± 11.61

**Q.** What about the body weight ([3]; week 3 (pre-administration)) of the same compound?
**A.** 362.58 ± 18.50

**Q.** What about the body weight ([3]; week 4 (pre-administration)) of the same compound?
**A.** 403.03 ± 23.75

**Q.** And the body weight ([3]; week 5 (pre-administration))?
**A.** 439.43 ± 29.45

**Q.** And the body weight ([3]; week 6 (pre-administration))?
**A.** 474.15 ± 35.23

**Q.** What about the body weight ([3]; week 7 (pre-administration)) of the same compound?
**A.** 492.08 ± 37.59

**Q.** What about the body weight ([3]; week 8 (pre-administration)) of the same compound?
**A.** 520.77 ± 41.63

**Q.** What about the body weight ([3]; week 9 (pre-administration)) of the same compound?
**A.** 548.10 ± 47.45

**Q.** And the body weight ([3]; week 10 (pre-administration))?
**A.** 552.73 ± 51.34

**Q.** And the body weight ([3]; week 11 (pre-administration))?
**A.** 552.52 ± 56.26

**Q.** And the body weight ([3]; week 12 (pre-administration))?
**A.** 570.97 ± 53.36

**Q.** What about the body weight ([3]; week 13) of the same compound?
**A.** 552.25 ± 68.34

**Q.** What about the body weight ([3]; week 14) of the same compound?
**A.** 551.61 ± 63.47

**Q.** And the body weight ([3]; week 15)?
**A.** 559.94 ± 61.90

**Q.** What about the body weight ([3]; week 16) of the same compound?
**A.** 572.35 ± 60.86

**Q.** What about the body weight ([3]; week 17) of the same compound?
**A.** 573.51 ± 72.23

**Q.** What about the body weight ([3]; week 18) of the same compound?
**A.** 599.13 ± 55.71

**Q.** And the body weight ([3]; week 19)?
**A.** 615.97 ± 56.23

**Q.** And the body weight ([3]; week 20)?
**A.** 601.19 ± 60.01

**Q.** What about the body weight ([4]; week 1) of the same compound?
**A.** 192.12 ± 5.16

**Q.** What about the body weight ([4]; week 2) of the same compound?
**A.** 251.85 ± 11.78

**Q.** And the body weight ([4]; week 3)?
**A.** 316.12 ± 16.31

**Q.** What about the body weight ([4]; week 4) of the same compound?
**A.** 359.50 ± 15.40

**Q.** And the body weight ([4]; week 5)?
**A.** 389.95 ± 30.78

**Q.** And the body weight ([4]; week 6)?
**A.** 432.14 ± 23.79

**Q.** And the body weight ([4]; week 7)?
**A.** 462.23 ± 28.00

**Q.** What about the body weight ([4]; week 8) of the same compound?
**A.** 487.97 ± 30.51

**Q.** And the body weight ([4]; week 9)?
**A.** 487.63 ± 39.07

**Q.** What about the body weight ([4]; week 10) of the same compound?
**A.** 505.41 ± 41.23

**Q.** What about the body weight ([4]; week 11) of the same compound?
**A.** 493.66 ± 55.42

**Q.** And the body weight ([4]; week 12)?
**A.** 509.99 ± 49.38

**Q.** What about the body weight ([4]; week 13) of the same compound?
**A.** 532.39 ± 48.08

**Q.** And the body weight ([4]; week 14)?
**A.** 532.75 ± 52.06

**Q.** And the body weight ([4]; week 15)?
**A.** 498.86 ± 46.37

**Q.** And the body weight ([4]; week 16)?
**A.** 493.95 ± 43.25

**Q.** And the body weight ([4]; week 17)?
**A.** 515.43 ± 41.21

**Q.** And the body weight ([4]; week 18)?
**A.** 525.15 ± 42.35

**Q.** What about the HA [5] of the same compound?
**A.** 50.19 ± 17.94 µg/L

**Q.** What about the IV-C [5] of the same compound?
**A.** 15.40 ± 7.08 µg/L

**Q.** What about the LN [5] of the same compound?
**A.** 118.43 ± 39.88 µg/L

**Q.** And the PC-III [5]?
**A.** 10.82 ± 1.64 µg/L

**Q.** And the “Liver Indices” value [6]?
**A.** 3.57 ± 0.31%
